System: dendritic cells
Experiment: Induction of the functional dendritic cell subset by immunomodulators
Format: cell-based, human
Conditions: dendritic cells of normal donors; TLR3 ligand as immunomodulator

Substance: poly I:C
- population of the functional subset of dendritic cells (CD64 and PD-L1 surface expression): induced a larger population of the functional subset of dendritic cells
